Measured values reported in patent US20120149080A1, “YEAST PRODUCTION CULTURE FOR THE PRODUCTION OF BUTANOL” (Butamax(TM) Advanced Biofuels LLC, priority 2010, published 2012).

Columns and labels:
Format in all cases: cell-based
[1] = tested on: Saccharomyces cerevisiae BY4743; experiment: Growth (OD600) of yeast in varying isobutanol concentrations
Protocol: Saccharomyces cerevisiae BY4743 was plated from a freezer vial onto YPD agar (Teknova, Hollister, Calif.; Cat. #Y1000) and incubated overnight at 30° C. Cells from the YPD plate were inoculated into a 25 ml pre-culture of YPD broth (Teknova, Hollister, Calif.; Cat. #Y5000) with an initial OD600 of 0.06 to 0.08. The pre-culture was grown for 7 hours in an aerobic shaker at 30° C. An aliquot of the pre-culture was inoculated into 125 ml of YPD broth, with an initial OD600 of 0.06 to 0.08, and this culture was incubated with aeration at 30° C. for approximately 17 hours.
A starter culture of 150 ml of YPD was inoculated with 5 ml of the overnight culture with an initial OD600 of 0.15. This culture was incubated at 30° C. with aeration for two hours, reaching OD600 of 0.38. At this time (time=0) the cultures were challenged with varying concentrations of isobutanol as given in Table 4 and the OD600 was assayed every hour for 5 h and at 24 h.

[2] = tested on: Saccharomyces cerevisiae PNY0602; experiment: Glucose consumption rate in high cell density culture in YPD; details: about 3.9 gdcw/L
From the text: (§1) S. cerevisiae strains used were PNY0569 CEN.PK122 (MATa MAL2-8c SUC2/MATalpha MAL2-8c SUC2) and PNY0571 (CEN.PK 113-7D MATa MAL2-8c SUC2), obtained from Centraalbureau voor Schimmelcultures, Fungal and Yeast Collection (Netherlands) as well as PNY0602 and PNY0614. PNY0602 and PNY0614 were isolated from a mutagenized culture of PNY0571. PNY0571 (CEN.PK 113-7D) was subjected to 10 rounds of chemical mutagenesis with N-methyl-N′-nitro-N-nitrosoguanidine (NTG) and ethylmethane sulfonate (EMS) using standard methods (Barbour, L., M. Hanna and W. Xiao. 2006. Mutagenesis, p. 121-127. In W. Xiao (ed.), Yeast Protocols, Second Edition. Humana Press, NJ). Cells were grown overnight in 10 ml of YPD at 30° C. with shaking. The overnight culture was centrifuged, and the pellet was resuspended in 50 mM potassium phosphate buffer, pH 7.0. The cells were again centrifuged and resuspended in 10 ml of the same buffer. A portion of the resuspended cells (2.5 ml) was transferred to a plastic 15 ml screw cap centrifuge tube, and the cells were treated with NTG (10 μg/ml final concentration) or EMS (3% w/v) for 40 minutes at 30° C. without shaking. The mutagen was inactivated by addition of an equal volume of filter sterilized 10% (w/v) sodium thiosulfate. The treated cells were centrifuged and resuspended in water two times. The treatment protocol involved repeated cycles of treating yeast cells with one of the mutagens (e.g., NTG), allowing the surviving cells to grow out overnight in YPD with 1% isobutanol, and then treating the overnight culture with the other mutagen (e.g., EMS). After the fifth cycle (i.e., a total of ten treatments with mutagen), cells were screened for isobutanol tolerance. PNY0602 was isolated after prolonged (24 h) exposure to 3.0% isobutanol. PNY0614 was isolated after 5 cycles of repeated freezing and thawing of the mutagenized culture by resuspending mutagenized cells in distilled water and transferring the cells to dry-ice ethanol bath and a 37° C. water bath for 20 minutes each.
(§2) Glucose consumption rates in the presence of isobutanol in YPD were also determined when the cell concentration was about 8 O.D. (about 3.9 gdcw/L). Saccharomyces cerevisiae strains PNY0571, PNY0602 and PNY0614 were plated from a freezer vial onto YPD agar (Teknova, Hollister, Calif.; Cat. #Y1000) and incubated overnight at 30° C. Cells from the YPD plate were inoculated into a 25 ml pre-culture of YPD broth (Teknova, Hollister, Calif.; Cat. #Y5000) with an initial OD600 of 0.06 to 0.08, and this culture was grown for 7 hours in an air shaker at 30° C. An aliquot of the pre-culture was inoculated into 200 ml of YPD broth with an initial OD600 of 0.06 to 0.08, and this culture was incubated with aeration at 30° C. for approximately 17 hours. The optical density of the culture was determined, the culture was centrifuged and the cells were resuspended in fresh YPD broth to yield an OD600 of 8. At this point, an aliquot of 10 ml of the culture was used for a dry cell weight determination, which gave dry cell weight in the range of 3.89 gdcw/L.
(§3) 20 ml cultures were transferred to flasks that contained 0.0%, 0.5%, 0.75%, 1.0%, 1.25%, 1.5%, 1.75%, 2.0% and 2.5% isobutanol. Time of addition of cells was referred to as 0 hours. At various times samples (500 to 700 ul) were transferred to a tube containing an equal volume of 10% TCA. Samples were centrifuged and glucose determined in the YSI glucose analyzer (YSI 2700 Select).

[3] = tested on: Saccharomyces cerevisiae PNY0571; experiment: as above; details: about 3.9 gdcw/L
From the text: as §1, §2, §3

CC(C)CO [Isobutanol, isobutanol]
Growth (OD 600) ([1]; 0.5% isobutanol, 1 hour): 0.55 OD 600
Growth (OD 600) ([1]; 0.5% isobutanol, 2 hours): 0.74 OD 600
Growth (OD 600) ([1]; 0.5% isobutanol, 3 hours): 1.12 OD 600
Growth (OD 600) ([1]; 0.5% isobutanol, 4 hours): 1.69 OD 600
Growth (OD 600) ([1]; 0.5% isobutanol, 5 hours): 2.22 OD 600
Growth (OD 600) ([1]; 0.5% isobutanol, 24 hours): 5.19 OD 600
Growth (OD 600) ([1]; 0.5% isobutanol, time 0 hours): 0.38 OD 600
Growth (OD 600) ([1]; 0.75% isobutanol, 1 hour): 0.54 OD 600
Growth (OD 600) ([1]; 0.75% isobutanol, 2 hours): 0.68 OD 600
Growth (OD 600) ([1]; 0.75% isobutanol, 3 hours): 1.00 OD 600
Growth (OD 600) ([1]; 0.75% isobutanol, 4 hours): 1.36 OD 600
Growth (OD 600) ([1]; 0.75% isobutanol, 5 hours): 1.80 OD 600
Growth (OD 600) ([1]; 0.75% isobutanol, 24 hours): 4.97 OD 600
Growth (OD 600) ([1]; 0.75% isobutanol, time 0 hours): 0.38 OD 600
Growth (OD 600) ([1]; 1% isobutanol, 1 hour): 0.51 OD 600
Growth (OD 600) ([1]; 1% isobutanol, 2 hours): 0.62 OD 600
Growth (OD 600) ([1]; 1% isobutanol, 3 hours): 0.82 OD 600
Growth (OD 600) ([1]; 1% isobutanol, 4 hours): 0.96 OD 600
Growth (OD 600) ([1]; 1% isobutanol, 5 hours): 1.16 OD 600
Growth (OD 600) ([1]; 1% isobutanol, 24 hours): 4.41 OD 600
cell concentration reached ([1]; 1% isobutanol, after overnight growth, one OD600 = 10^7 cells/ml): about 4×10^7 cells/ml
Growth (OD 600) ([1]; 1% isobutanol, time 0 hours): 0.38 OD 600
Growth (OD 600) ([1]; 1.5% isobutanol, 1 hour): 0.46 OD 600
Growth (OD 600) ([1]; 1.5% isobutanol, 2 hours): 0.50 OD 600
Growth (OD 600) ([1]; 1.5% isobutanol, 3 hours): 0.53 OD 600
Growth (OD 600) ([1]; 1.5% isobutanol, 4 hours): 0.61 OD 600
Growth (OD 600) ([1]; 1.5% isobutanol, 5 hours): 0.65 OD 600
Growth (OD 600) ([1]; 1.5% isobutanol, 24 hours): 1.41 OD 600
Growth (OD 600) ([1]; 1.5% isobutanol, time 0 hours): 0.38 OD 600
Growth (OD 600) ([1]; 2% isobutanol, 1 hour): 0.43 OD 600
Growth (OD 600) ([1]; 2% isobutanol, 2 hours): 0.46 OD 600
Growth (OD 600) ([1]; 2% isobutanol, 3 hours): 0.47 OD 600
Growth (OD 600) ([1]; 2% isobutanol, 4 hours): 0.49 OD 600
Growth (OD 600) ([1]; 2% isobutanol, 5 hours): 0.50 OD 600
Growth (OD 600) ([1]; 2% isobutanol, 24 hours): 0.90 OD 600
Growth (OD 600) ([1]; 2% isobutanol, time 0 hours): 0.38 OD 600
Growth (OD 600) ([1]; 2.5% isobutanol, 1 hour): 0.42 OD 600
Growth (OD 600) ([1]; 2.5% isobutanol, 2 hours): 0.42 OD 600
Growth (OD 600) ([1]; 2.5% isobutanol, 3 hours): 0.42 OD 600
Growth (OD 600) ([1]; 2.5% isobutanol, 4 hours): 0.45 OD 600
Growth (OD 600) ([1]; 2.5% isobutanol, 5 hours): 0.45 OD 600
Growth (OD 600) ([1]; 2.5% isobutanol, 24 hours): 0.52 OD 600
Growth (OD 600) ([1]; 2.5% isobutanol, time 0 hours): 0.38 OD 600
Glucose consumed per gdcw per hour ([2]; PNY0602, 0.5% isobutanol): 3.0 per gdcw per hour
Glucose consumed per gdcw per hour ([2]; PNY0602, 0.75% isobutanol): 2.9 per gdcw per hour
Glucose consumed per gdcw per hour ([2]; PNY0602, 1% isobutanol): 2.7 per gdcw per hour
Glucose consumed per gdcw per hour ([2]; PNY0602, 1.5% isobutanol): 1.5 per gdcw per hour
Glucose consumed per gdcw per hour ([2]; PNY0602, 1.75% isobutanol): 1.1 per gdcw per hour
Glucose consumed per gdcw per hour ([2]; PNY0602, 2% isobutanol): 0.9 per gdcw per hour
Glucose consumed per gdcw per hour ([2]; PNY0602, 2.5% isobutanol): 0.5 per gdcw per hour
Glucose consumed per gdcw per hour ([3]; PNY0571, 0.5% isobutanol): 2.1 per gdcw per hour
Glucose consumed per gdcw per hour ([3]; PNY0571, 0.75% isobutanol): 2.0 per gdcw per hour
Glucose consumed per gdcw per hour ([3]; PNY0571, 1% isobutanol): 1.9 per gdcw per hour
Glucose consumed per gdcw per hour ([3]; PNY0571, 1.5% isobutanol): 1.0 per gdcw per hour
Glucose consumed per gdcw per hour ([3]; PNY0571, 1.75% isobutanol): 0.8 per gdcw per hour
Glucose consumed per gdcw per hour ([3]; PNY0571, 2% isobutanol): 0.6 per gdcw per hour
Glucose consumed per gdcw per hour ([3]; PNY0571, 2.5% isobutanol): 0.3 per gdcw per hour
